In one series the test system is mice. The series is described as follows: Open field test (locomotor activity). The conditions noted are these: 50 μM BzATP, 24 hours after injection, vs vehicle.
The next series has as its target T1, P2X7R (Mus musculus, UniProt Q9Z1M0).
T1 construct: an immortalised mouse hippocampal cell line expressing the endogenous P2X7 gene; endogenous in cells; host or cells: HT-22 mouse hippocampal cell line
T1 sequence (Q9Z1M0 1-595): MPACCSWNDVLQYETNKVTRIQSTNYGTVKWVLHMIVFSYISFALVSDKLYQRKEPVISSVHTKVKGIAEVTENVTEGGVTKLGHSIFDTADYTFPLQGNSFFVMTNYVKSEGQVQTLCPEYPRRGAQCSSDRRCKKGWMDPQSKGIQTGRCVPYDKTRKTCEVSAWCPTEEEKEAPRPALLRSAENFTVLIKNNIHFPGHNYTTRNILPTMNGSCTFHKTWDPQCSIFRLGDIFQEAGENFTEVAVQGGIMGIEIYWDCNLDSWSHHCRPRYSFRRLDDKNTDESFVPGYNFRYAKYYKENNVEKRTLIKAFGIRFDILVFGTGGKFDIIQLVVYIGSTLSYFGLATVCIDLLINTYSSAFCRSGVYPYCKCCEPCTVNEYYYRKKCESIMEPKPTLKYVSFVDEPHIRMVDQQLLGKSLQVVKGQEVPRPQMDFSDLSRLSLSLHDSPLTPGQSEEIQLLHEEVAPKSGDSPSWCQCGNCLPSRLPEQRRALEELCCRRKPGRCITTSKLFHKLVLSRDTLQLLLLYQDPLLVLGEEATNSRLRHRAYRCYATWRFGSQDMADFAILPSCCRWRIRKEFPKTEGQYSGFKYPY
The experiment in a line: Entry of ethidium bromide into HT-22 cells. The class given is cell-based. Conditions: HT-22 cells, 60 minutes, 10^−4M ethidium bromide; 1 μM to 1 mM tested. The source says: Yet another method of measuring P2X7R activity involves the entry of ethidium bromide into P2X7R expressing cells. Activation of P2X7R by an agonist allows the entry of ethidium bromide which binds nuclear DNA and emits a fluorescence signal. Alternatively, the propidium dye YOPRO-1 can be substituted for ethidium bromide. An increase in fluorescence can be used as a measure of P2X7 receptor activation. Therefore, the assay can be used to test and quantify the effect of an agent or compound with agonist properties on P2X7R. In the present example, 10^3 HT-22 cells were seeded per well in a 96-well flat bottom microtitre plates and incubated at 37° C./5% CO2 in DMEM medium containing 10% FCS until the cells attached to the culture surface. […] The number of fluorescent cells which have integrated the ethidium bromide to the DNA can then be counted using a fluorescent microscope (Zeiss, Germany). […] Alternatively, ethidium bromide fluorescence can be measured using a Perkin-Elmer fluorescent plate reader (excitation 520 nm, emission 595 nm, slit widths: Ex 15 nm, Em 20 nm). From the readings obtained, a pIC50 figure can be calculated for each candidate agent or compound. […] The specificity of an agonist for P2X7R can be evaluated by pre-incubation of the cells for 60 minutes with 100 μM o-ATP before adding the agonist and ethidium bromide dye.

The results in this text go back to patent US7767398B2, “Means and methods for diagnosing and treating affective disorders” (Affectis Pharmaceuticals AG, priority 2003, dated 2010).

Description for mice: Locomotor activity was monitored for a period of 30 minutes using a video camera. Overall distance traveled by the animals during the testing period was then analysed by means of VideoMot2 computer software (TSE GmbH, Bad Homburg).

For “2′-3′-O-(4-Benzoylbenzoyl)adenosine 5′-triphosphate [BzATP]”, in the series with mice, the “locomotor activity (overall distance traveled, 30 minutes)” value is listed as “No difference in locomotor activity”. Also, at P2X7R, the “BzATP concentrations that increased the number of fluorescent nuclei” value is “above 100 μM”.
